Measured values: US9663800B2, “Alkane exporter and its use” (Nanyang Technological University, priority 2012, dated 2017)

What was measured:
ABC2 mRNA = assay: Quantitative RT-PCR of ABC2 transcripts after alkane treatment; assay type: cell-based; conditions: Y. lipolytica CLIB122, 24 h alkane treated vs. untreated, normalized to actin, p<0.05
Description: (§1) FIG. 3. mRNA transcripts levels of ABC2 and ABC3 in Y. lipolytica. Quantitative RT-PCR analysis of ABC2 (A) and ABC3 (B) in Y. lipolytica cells corresponding to treatment with octane, nonane, decane, undecane and dodecane (C8-C12). Each value of qRT-PCR was normalized to β-actin expression levels and expressed as the fold change relative to the levels detected in control samples, which were cells without alkane treatment and set equal to 1. Error bars represent the SD of triplicate.
(§2) To assess whether ABC1, ABC2, ABC3 and ABC4 are involved in alkane transport in Y. lipolytica, we analysed the effects of alkanes with different chain length (C8-C12) on the transcription levels of these four ABC transporter genes using quantitative RT-PCR.
(§3) Total RNA samples from 24 h alkane treated and untreated Y. lipolytica CLIB122 cells were prepared using RNeasy Mini Kit (Qiagen), followed by cDNA synthesis using H minus Reverse transcriptase kit (Fermentas). Quantitative RT-PCR analysis was performed on a Bio-Rad iQ5 real-time PCR detection system using SsoFast EvaGreen Supermix kit (Bio-Rad). The actin gene (YALI0D08272g) was used as reference gene for Y. lipolytica. Relative mRNA levels were derived using comparative CT method.

ABC3 mRNA = assay: Quantitative RT-PCR of ABC3 transcripts after alkane treatment; assay type: cell-based; conditions: Y. lipolytica CLIB122, 24 h alkane treated vs. untreated, normalized to actin, p<0.05
Description: as §1, §2, §3

S. cerevisiae BY4741 = assay: Alkane susceptibility test in liquid culture; assay type: cell-based, Saccharomyces cerevisiae; conditions: control cells with empty plasmid, 48 hr, 28° C.
Experimental: FIG. 2. Alkane susceptibility test for S. cerevisiae. The alkane susceptibility was tested in cells expressing ABC2/3 or with empty plasmid. (A) Alkane susceptibility test on agar plate. Serial dilutions of cells expressing ABC2/3 were spotted on agar plates with alkanes (decane, undecane) as vapour phase. Plates were incubated at 28° C. for 2 days. (B) Alkane susceptibility test in liquid culture. Overnight cell culture was diluted into induction medium (final OD600=0.4) with different alkanes (decane & undecane) concentrations. The plates were incubated for 48 hr at 28° C. The OD600 value of each sample was determined and plotted against its corresponding alkane concentration. Symbols for strains are: control sample with empty plasmid (open circle), cells expressing ABC2 (filled circle), cell expressing ABC3 (filled triangle).
Overnight culture was diluted into 5 ml induction medium in 50 ml glass bottle (Sigma) at an initial OD600 of 0.4. Alkanes were added as different final concentration. Bottles were sealed tightly with butyl rubber stopper (Sigma) and silver aluminum seal (Sigma). Liquid culture was performed at 28° C. with shaking. Growth was monitored by measuring the OD600 at different time point. Cell culture used for time point OD checking was collected from the glass bottle using needle and syringe.
To further analyze the effect of ABC2 and ABC3 toward decane and undecane, alkane susceptibility tests in liquid culture were conducted. […] With the expression of ABC2, decane tolerance was boosted about 80-fold (20% vs. 0.25% decane) and cells can survive in 20% undecane. For ABC3, decane tolerance is increased slightly by about 3-fold (0.75% vs. 0.25% decane) and cells are resistant to 20% undecane. It is apparent that the expression of ABC2 and ABC3 transporters improved the tolerance toward C10 and C11 alkanes.

| Structure (SMILES) | mRNA levels of ABC2 (ABC2 mRNA) | mRNA levels of ABC3 (ABC3 mRNA) | alkane concentration causing a significant decrease in viability of the control cells (S. cerevisiae BY4741) |
| --- | --- | --- | --- |
| CCCCCCCCC [nonane] | significantly increased | significantly increased |  |
| CCCCCCCCCC [decane] | significantly increased | significantly increased | 0.5% |
